Measured values reported in patent publication US9757378B2, “Methods to modulate acute myeloid leukemia stem/progenitor cell expansion and/or differentiation” (UNIVERSITE DE MONTREAL, priority 2013, dated 2017).
Counter-ions that a name gives are not always drawn.

How the values were obtained:
[1] = tested on: primary human AML cells; test: Secondary screen: dose response, five serial dilutions (CD34/CD15 flow cytometry); type: cell-based; parameters: key to 2ndary screen criteria fulfilled: 0 = no; 1 = yes; details: for 2ndary screen criteria fulfilled: ≧50% increase CD34+CD15− (%) and cell counts and ≧50% gated cells in at least one dose; for % increase CD34+CD15− (%) 2ndary screen / % increase CD34+CD15− (cell counts) 2ndary screen: at optimal concentration, compared to DMSO
Experimental: In the primary screen cells were plated in transparent 384-wellplates (Greiner, 781182) at a density of 5,000 cells in 50 μl final volume per well. Compounds were tested at 2 μM (commercial libraries) or 1 μg/ml (Medicinal Chemistry Facility, IRIC). […] For validation experiments AML cells were grown in 384-well plates with 3-8 replicates per condition.
Flow cytometry was performed on an LSR™ II cytometer equipped with an HTS-device (BD Bioscience, Primary and Secondary screens and in vitro validation experiments) or on a BD Canto™ II cytometer (BD Bioscience, Xenotransplantation and CellTrace Violet™ experiments). Cells were stained for 30 minutes at 4° C. protected from light if not otherwise indicated (CellTrace Violet™ staining). The following flow cytometry-antibodies were used: CD45 Pacific Blue (BioLegend 304029), CD33 PE (BD Bioscience 555450), CD34 APC (BD Bioscience 555824), CD3 FITC (BD Bioscience 555332), CD19 PE-Cy7 (BD Bioscience 557835), CD15 PE (BD Bioscience 555401), and anti-mouse CD45.1 APC-efluor 730 (eBioscience 47-0453-82). CD34 intensities in flow cytometry plots were set at high levels on day 0 to allow tracing of non-predictable decreases of intensities during 7 days in culture.

[2] = tested on: primary human AML cells; test: Primary screen: differentiation of primary human AML cells in vitro (CD34/CD15, HTS flow cytometry); details: for percent gated cells (viability): 2 μM (commercial libraries) or 1 μg/ml (IRIC); for % increase CD34+ (%) / % increase CD34+ (cell counts) / % increase CD34+CD15− (cell counts): compared to DMSO; for % increase CD34+CD15− (%): compared to DMSO ((compound − DMSO)/DMSO*100)
Experimental: AML cells were thawed in 37° C. water bath and 1:10 diluted in prewarmed Iscove's modified Dulbecco's medium (IMDM) containing 20% FBS and DNase 100 μg/ml. […] When compounds were added to the culture medium, final DMSO concentrations were 0.1% in all in vitro experiments and 0.01% when cultured cells were transplanted into NSG-mice.
Compounds were tested at 2 μM (commercial libraries) or 1 μg/ml (Medicinal Chemistry Facility, IRIC). […] For validation experiments AML cells were grown in 384-well plates with 3-8 replicates per condition.
Flow cytometry was performed on an LSR™ II cytometer equipped with an HTS-device (BD Bioscience, Primary and Secondary screens and in vitro validation experiments) or on a BD Canto™ II cytometer (BD Bioscience, Xenotransplantation and CellTrace Violet™ experiments). Cells were stained for 30 minutes at 4° C. protected from light if not otherwise indicated (CellTrace Violet™ staining). […] CD34 intensities in flow cytometry plots were set at high levels on day 0 to allow tracing of non-predictable decreases of intensities during 7 days in culture.

Compound | 2ndary screen criteria fulfilled [1] | percent gated cells (viability) [2] [%] | % increase CD34+ (%) [2] [%] | % increase CD34+ (cell counts) [2] [%] | % increase CD34+CD15− (cell counts) [2] [%] | % increase CD34+CD15− (%) [2] [%] | % increase CD34+CD15− (%) 2ndary screen [1] [%] | % increase CD34+CD15− (cell counts) 2ndary screen [1] [%]
O[C@H]1[C@H]2[C@H](O)CCCN2C[C@H]1O [UM0119223, Swainsonine] | 0 | 81.90 | 30.00 | −43.81 | −22.20 | 79.57 | – | –
O=c1c2ccccc2oc2ccccc12 [UM0120986, Xanthone] | 0 | 81.40 | 34.82 | 28.81 | 86.26 | 94.85 | – | –
Benzalkonium chloride [UM0120664] | 0 | – | 45.92 | −73.74 | −57.89 | 133.07 | – | –
COc1cc(-c2oc3cc(O)cc(O)c3c(=O)c2O)ccc1O [UM0119319, Isorhamnetine] | 0 | – | 37.41 | 28.67 | 62.94 | 74.28 | – | –
COc1c(O)cc2oc(-c3ccc(O)c(O)c3)cc(=O)c2c1O [UM0119305, 6-Methoxyluteolin] | 0 | 83.60 | 31.39 | −2.77 | 40.01 | 88.83 | – | –
CCCCCCC(=O)CCCCCC/C=C/C[C@@H](O)[C@H](O)[C@@](N)(CO)C(=O)O [UM0119199, Myriocin] | 0 | 79.90 | 1.19 | −36.05 | 9.44 | 72.63 | – | –
COc1ccc(-c2coc3c(O)c(OC)ccc3c2=O)cc1 [UM0121179, Retusin 7-Methylether] | 1 | 82.10 | 58.87 | 59.80 | 125.38 | 124.10 | 218.84 | 199.22
O=C(Nc1ccc2c(c1)OCCO2)c1sc2ccccc2c1Cl [UM0045609, 3-chloro-N-(2,3-dihydro-1,4-benzodioxin-6-yl)-1-benzithiophene-2-carboxamide] | 1 | – | 46.63 | 56.89 | 109.14 | 94.85 | 204.83 | 198.60
C[C@]12CC[C@H](O)C[C@H]1CC[C@@H]1[C@@H]2CC[C@]2(C)[C@@H](C3=CC(=O)OC3)[C@@H](O)C[C@]12O [UM0119342, Gitoxigenin] | 0 | 77.10 | 48.71 | −44.85 | −40.00 | 62.33 | – | –
N[C@@H]1C[C@H]1c1ccccc1 [UM0118428, Tranylcypromine hydrochloride] | 0 | 77.80 | 49.50 | −11.95 | −10.11 | 52.70 | – | –
O=c1c(O)c(-c2ccc(O)cc2)oc2cc(O)cc(O)c12 [UM0118952, Kaempferol] | 0 | 78.90 | 26.34 | −2.29 | 44.57 | 87.18 | – | –
